In patent publication US11051515B2, “3-acyl-benzamides and their use as herbicides” (Bayer Aktiengesellschaft, priority 2017, dated 2021):

Tests used:
VIOTR [1] = test: Post-emergence action against VIOTR; type: in vivo, Viola tricolor; details: post-emergence, dosage 80 g/ha
Experimental: (§1) Seeds of monocotyledonous and dicotyledonous weed and crop plants are laid out in sandy loam soil in wood-fiber pots, covered with soil and cultivated in a greenhouse under good growth conditions. 2 to 3 weeks after sowing, the test plants are treated at the one-leaf stage. The compounds of the invention, formulated in the form of wettable powders (WP) or as emulsion concentrates (EC), are then sprayed onto the green parts of the plants in the form of an aqueous suspension or emulsion at a water application rate equating to […], with addition of 0.2% wetting agent. After the test plants have been left to stand in the greenhouse under optimal growth conditions for about 3 weeks, the action of the preparations is assessed visually in comparison to untreated controls (herbicidal action in percent (%): 100% activity=the plants have died, 0% activity=like control plants). […] At the same time, inventive compounds leave Gramineae crops such as barley, wheat, rye, millet/Sorghum, corn or rice virtually undamaged when applied post-emergence, even at high active ingredient dosages. In addition, some substances are also harmless to dicotyledonous crops such as soya, cotton, oilseed rape, sugar beet or potatoes. Some of the compounds according to the invention have high selectivity and are therefore suitable for controlling unwanted vegetation in agricultural crops by the post-emergence method. The data of Tables B18 to B34 below illustrate, in an exemplary manner, the […] herbicidal action of the compounds according to the invention, the herbicidal activity being stated in percent.

ECHCG [2] = test: Pre-emergence action against ECHCG; type: in vivo, Echinochloa crus-galli; details: pre-emergence, dosage 320 g/ha, scored visually after 3 weeks vs untreated controls
Excerpt: (§2) Seeds of monocotyledonous and dicotyledonous weed plants and crop plants are laid out in sandy loam soil in wood-fiber pots and covered with soil. The compounds of the invention, formulated in the form of wettable powders (WP) or as emulsion concentrates (EC), are then applied to the surface of the covering soil in the form of an aqueous suspension or emulsion at a water application rate equating to […], with addition of 0.2% wetting agent. After the treatment, the pots are placed in a greenhouse and kept under good growth conditions for the trial plants. The damage to the test plants is scored visually after a test period of 3 weeks by comparison with untreated controls (herbicidal activity in percent (%): 100% activity=the plants have died, 0% activity=like control plants).

ABUTH [3] = test: Pre-emergence action against ABUTH; type: in vivo, Abutilon theophrasti; details: pre-emergence, dosage 320 g/ha, scored visually after 3 weeks vs untreated controls
Excerpt: as §2

ECHCG [4] = test: Post-emergence action against ECHCG; type: in vivo, Echinochloa crus-galli; details: post-emergence, dosage 80 g/ha, visual assessment about 3 weeks after treatment vs untreated controls
Experimental: as §1

VERPE [5] = test: Post-emergence action against VERPE; type: in vivo, Veronica persica; details: dosage 80 g/ha
Experimental: as §1

MATIN [6] = test: Pre-emergence action against MATIN; type: in vivo, Matricaria inodora; details: Dosage 320 g/ha, pre-emergence
Excerpt: as §2

AMARE [7] = test: Post-emergence action against AMARE; type: in vivo, Amaranthus retroflexus; details: post-emergence, dosage 80 g/ha, visual assessment about 3 weeks after treatment vs untreated controls
Experimental: as §1

PHBPU [8] = test: Pre-emergence action against PHBPU; type: in vivo, Pharbitis purpurea; details: Dosage 320 g/ha, pre-emergence
Excerpt: as §2

MATIN [9] = test: Post-emergence action against MATIN; type: in vivo, Matricaria inodora; details: post-emergence, dosage 80 g/ha, visual assessment about 3 weeks after treatment vs untreated controls
Experimental: as §1

STEME [10] = test: Post-emergence action against STEME; type: in vivo, Stellaria media; details: post-emergence, dosage 80 g/ha
Experimental: as §1

PHBPU [11] = test: Post-emergence action against PHBPU; type: in vivo, Pharbitis purpurea; details: post-emergence, dosage 80 g/ha
Experimental: as §1

AMARE [12] = test: Pre-emergence action against AMARE; type: in vivo, Amaranthus retroflexus; details: pre-emergence, dosage 320 g/ha, scored visually after 3 weeks vs untreated controls
Excerpt: as §2

AVEFA = test: Pre-emergence action against AVEFA; type: in vivo, Avena fatua; details: dosage 320 g/ha, scored visually after 3 weeks vs untreated controls
Excerpt: as §2

VERPE [13] = test: Pre-emergence action against VERPE; type: in vivo, Veronica persica; details: Dosage 320 g/ha, pre-emergence
Excerpt: as §2

VIOTR [14] = test: Pre-emergence action against VIOTR; type: in vivo, Viola tricolor; details: Dosage 320 g/ha, pre-emergence
Excerpt: as §2

ABUTH [15] = test: Post-emergence action against ABUTH; type: in vivo, Abutilon theophrasti; details: post-emergence, dosage 80 g/ha, visual assessment about 3 weeks after treatment vs untreated controls
Experimental: as §1

STEME [16] = test: Pre-emergence action against STEME; type: in vivo, Stellaria media; details: Dosage 320 g/ha, pre-emergence
Excerpt: as §2

CYPES = test: Pre-emergence action against CYPES; type: in vivo, Cyperus esculentus; details: pre-emergence, dosage 320 g/ha, scored visually after 3 weeks vs untreated controls
Excerpt: as §2

SETVI [17] = test: Pre-emergence action against SETVI; type: in vivo, Setaria viridis; details: pre-emergence, dosage 320 g/ha, scored visually after 3 weeks vs untreated controls
Excerpt: as §2

ALOMY = test: Pre-emergence action against ALOMY; type: in vivo, Alopecurus myosuroides; details: dosage 320 g/ha; pre-emergence; scored visually after 3 weeks vs untreated controls; 100% = plants have died, 0% = like control plants
Excerpt: as §2

SETVI [18] = test: Post-emergence action against SETVI; type: in vivo, Setaria viridis; details: post-emergence, dosage 80 g/ha, visual assessment about 3 weeks after treatment vs untreated controls
Experimental: as §1

| SMILES | Post-emergence action against VIOTR (VIOTR [1]) | Pre-emergence action against ECHCG (herbicidal activity) (ECHCG [2]) | Pre-emergence action against ABUTH (herbicidal activity) (ABUTH [3]) | Post-emergence action against ECHCG (herbicidal action in percent) (ECHCG [4]) | Pre-emergence action against MATIN (MATIN [6]) | Post-emergence action against AMARE (herbicidal action in percent) (AMARE [7]) | Pre-emergence action against PHBPU (PHBPU [8]) | Post-emergence action against MATIN (herbicidal action in percent) (MATIN [9]) | Post-emergence action against STEME (STEME [10]) | Post-emergence action against PHBPU (PHBPU [11]) | Pre-emergence action against AMARE (herbicidal activity) (AMARE [12]) | Pre-emergence action against VERPE (VERPE [13]) | Pre-emergence action against VIOTR (VIOTR [14]) | Post-emergence action against ABUTH (herbicidal action in percent) (ABUTH [15]) | Pre-emergence action against STEME (STEME [16]) | Pre-emergence action against ALOMY (herbicidal activity in percent) (ALOMY) | also measured |
| --- | --- | --- | --- | --- | --- | --- | --- | --- | --- | --- | --- | --- | --- | --- | --- | --- | --- |
| CCCn1nnnc1NC(=O)c1ccc(C)c(C(=O)C2CC2)c1Cl [3-136] | 80 | 80% | 80% | 80% | 90% | 80% | 90% | 90% | 100 | 90 | 90% |  |  |  |  |  | Post-emergence action against VERPE (VERPE [5]): 80 |
| CCn1nnnc1NC(=O)c1ccc(C(F)(F)F)c(C(=O)C2CCCCC2)c1SC [2-285] |  | 80% | 100% |  | 90% | 90% |  | 80% | 80 |  | 100% | 90% | 100% | 90% | 100% |  | Pre-emergence action against AVEFA (herbicidal activity) (AVEFA): 80% |
| CCC(=O)c1c(C)ccc(C(=O)Nc2nnnn2C)c1Cl [1-135] |  |  |  |  |  |  |  |  |  |  |  |  |  |  |  |  | pest or weed control at 80 g/ha (VIOTR [1]; Viola tricolor, 504 h): 90%; pest or weed control at 320 g/ha (ECHCG [2]; Echinochloa crus-galli, 504 h, read-out: Pre-emergence action against ECHCG (herbicidal activity)): 90%; pest or weed control at 80 g/ha (ECHCG [4]; Echinochloa crus-galli, 504 h, read-out: Post-emergence action against ECHCG (herbicidal action in percent)): 80%; pest or weed control at 80 g/ha (VERPE [5]; Veronica persica, 504 h): 80%; pest or weed control at 320 g/ha (MATIN [6]; Tripleurospermum inodorum, 504 h): 90%; pest or weed control at 80 g/ha (AMARE [7]; Amaranthus retroflexus, 504 h, read-out: Post-emergence action against AMARE (herbicidal action in percent)): 90%; pest or weed control at 320 g/ha (VERPE [13]; Veronica persica, 504 h): 90%; pest or weed control at 80 g/ha (MATIN [9]; Tripleurospermum inodorum, 504 h, read-out: Post-emergence action against MATIN (herbicidal action in percent)): 90%; pest or weed control at 320 g/ha (STEME [16]; Stellaria media, 504 h): 90%; pest or weed control at 80 g/ha (STEME [10]; Stellaria media, 504 h): 100%; pest or weed control at 320 g/ha (AMARE [12]; Amaranthus retroflexus, 504 h, read-out: Pre-emergence action against AMARE (herbicidal activity)): 100% |
| CCCn1nnnc1NC(=O)c1ccc(C)c(C(=O)C2CC2)c1C [3-3] |  | 100% | 80% | 100% | 100% | 100% |  |  | 80 |  | 100% |  |  |  | 90% | 90% | Pre-emergence action against CYPES (herbicidal activity) (CYPES): 90%; SETVI (Table B8, pre-emergence herbicidal activity) (SETVI [17]): 90% |
| CCn1nnnc1NC(=O)c1ccc(C(F)(F)F)c(C(=O)c2cc(F)cc(F)c2)c1Cl [2-286] | 80 |  | 80% | 80% |  | 90% | 80% |  |  | 90 | 100% |  | 100% | 80% |  |  |  |
| CCn1nnnc1NC(=O)c1ccc(C)c(C(=O)C2CC2)c1Cl [2-136] | 80 |  | 90% |  | 100% |  | 100% | 90% | 80 | 90 | 100% | 90% |  |  | 90% | 90% |  |
| CCCn1nnnc1NC(=O)c1ccc(C(F)(F)F)c(C(=O)CC)c1C [3-15] | 90 | 100% | 100% | 100% | 100% | 90% | 80% | 100% | 100 | 90 | 100% | 100% | 100% | 90% | 100% | 80% | Post-emergence action against VERPE (VERPE [5]): 90; Post-emergence action against SETVI (herbicidal action in percent) (SETVI [18]): 100%; SETVI (Table B8, pre-emergence herbicidal activity) (SETVI [17]): 100% |
